Measured values from ChEMBL document CHEMBL5523746, “Discovery of Novel Peptide Antagonists Targeting GPR55 for Liver Inflammation and Fibrosis” (2024).
Activity calls are given as the source filed them. No cut-off for these calls is given here. Bridge positions count the residues as written; N and C are the ends. Peptide text beside a SMILES is read from it.

Legend:
Mus musculus [1] = experiment: Induction of fatty acid beta-oxidation related gene expression in methionine and choline-deficient (MCD) diet-induced liver fibrosis C57BL/6J mouse model assessed as increase in MCAD mRNA level at 150 to 300 microg/kg once daily for 3 weeks by qPCR analysis; format: functional, organism-based; conditions: dose 150-300 µg/kg
Mus musculus [2] = experiment: In vivo anti-fibrotic activity against CCl4-induced liver fibrosis C57BL/6J mouse model assessed as reduction in […] mRNA level at 150 to 300 microg/kg once daily for 3 weeks by RT-qPCR analysis; format: functional, organism-based; conditions: dose 150-300 µg/kg
Mus musculus [3] = experiment: In vivo anti-fibrotic activity against methionine and choline-deficient (MCD) diet-induced liver fibrosis C57BL/6J mouse model assessed as reduction in ROS treated at 150 to 300 microg/kg once daily for 3 weeks by qPCR analysis; format: functional, organism-based; conditions: dose 150-300 µg/kg
LX-2 = experiment: Anti-fibrotic activity in human LX2 cells assessed as reduction in […] expression by measuring relative inhibition rate measured after 24 hrs incubation by Western blot analysis relative to control; format: functional; set-up: concentration or dose not given beside the values
Mus musculus [4] = experiment: In vivo anti-fibrotic activity against CCl4-induced liver fibrosis C57BL/6J mouse model assessed as reduction in hepatocyte apoptosis at 300 microg/kg once daily for 3 weeks by TUNEL assay; format: functional, organism-based; conditions: dose 300.0 µg/kg
Mus musculus [5] = experiment: Reduction in fatty acid synthesis related gene expression in methionine and choline-deficient (MCD) diet-induced liver C57BL/6J fibrosis mouse model assessed as reduction in FATP1 mRNA level at 150 to 300 microg/kg once daily for 3 weeks by qPCR analysis; format: functional, organism-based; conditions: dose 150-300 µg/kg
Mus musculus [6] = experiment: Reduction in fatty acid synthesis related gene expression in methionine and choline-deficient (MCD) diet-induced liver fibrosis C57BL/6J mouse model assessed as reduction in FAS mRNA level at 150 to 300 microg/kg once daily for 3 weeks by qPCR analysis; format: functional, organism-based; conditions: dose 150-300 µg/kg
Mus musculus [7] = experiment: In vivo anti-fibrotic activity against CCl4-induced liver fibrosis C57BL/6J mouse model assessed as reduction in oxidative stress by measuring decrease in lipid oxidation product MDA at 150 to 300 microg/kg once daily for 3 weeks by enzyme activity assay; format: functional, organism-based; conditions: dose 150-300 µg/kg
Mus musculus [8] = experiment: In vivo anti-fibrotic activity against methionine and choline-deficient (MCD) diet-induced liver fibrosis C57BL/6J mouse model assessed as reduction in inflammation by measuring decrease in CD68 inflammation marker at 150 to 300 microg/kg once daily for 3 weeks by IHC staining based assay; format: functional, organism-based; conditions: dose 150-300 µg/kg
Mus musculus [9] = experiment: In vivo anti-fibrotic activity against CCl4-induced liver fibrosis C57BL/6J mouse model assessed as reduction in oxidative stress by measuring increase in superoxide dismutase at 150 to 300 microg/kg once daily for 3 weeks by enzyme activity assay; format: functional, organism-based; conditions: dose 150-300 µg/kg
Mus musculus [10] = experiment: In vivo anti-fibrotic activity against CCl4-induced liver fibrosis C57BL/6J mouse model assessed as decrease in COL1alpha at 150 to 300 microg/kg once daily for 3 weeks by IHC staining based assay; format: functional, organism-based; conditions: dose 150-300 µg/kg
Mus musculus [11] = experiment: Induction of fatty acid beta-oxidation related gene expression in methionine and choline-deficient (MCD) diet-induced liver fibrosis C57BL/6J mouse model assessed as increase in ACOX mRNA level at 150 to 300 microg/kg once daily for 3 weeks by qPCR analysis; format: functional, organism-based; conditions: dose 150-300 µg/kg
Mus musculus [12] = experiment: In vivo anti-fibrotic activity against CCl4-induced liver fibrosis C57BL/6J mouse model assessed as reduction in oxidative stress by measuring increase in catalase at 150 to 300 microg/kg once daily for 3 weeks by enzyme activity assay; format: functional, organism-based; conditions: dose 150-300 µg/kg
Mus musculus [13] = experiment: In vivo anti-fibrotic activity against CCl4-induced liver fibrosis C57BL/6J mouse model assessed as decrease in inflammation at 150 to 300 microg/kg once daily for 3 weeks by IHC staining based assay; format: functional, organism-based; conditions: dose 150-300 µg/kg
Mus musculus [14] = experiment: In vivo anti-fibrotic activity against CCl4-induced liver fibrosis C57BL/6J mouse model assessed as reduction in hepatocyte apoptosis by measuring increase in BAX protein in cytoplasm at 300 microg/kg once daily for 3 weeks; format: functional, organism-based; conditions: dose 300.0 µg/kg
Mus musculus [15] = experiment: In vivo anti-fibrotic activity against CCl4-induced liver fibrosis C57BL/6J mouse model assessed as liver function by measuring decrease in serum hydroxyproline (HYP) at 150 to 300 microg/kg once daily for 3 weeks by bio-chemical analysis; format: functional, organism-based; conditions: dose 150-300 µg/kg
Mus musculus [16] = experiment: Induction of fatty acid beta-oxidation related gene expression in methionine and choline-deficient (MCD) diet-induced liver fibrosis C57BL/6J mouse model assessed as increase in PPARalpha mRNA level at 150 to 300 microg/kg once daily for 3 weeks by qPCR analysis; format: functional, organism-based; conditions: dose 150-300 µg/kg
Mus musculus [17] = experiment: In vivo anti-fibrotic activity against CCl4-induced liver fibrosis C57BL/6J mouse model assessed as increase in anti-apoptotic protein BCL2 level at 300 microg/kg once daily for 3 weeks by Western blot analysis; format: functional, organism-based; conditions: dose 300.0 µg/kg
Mus musculus [18] = experiment: Induction of fatty acid beta-oxidation related gene expression in methionine and choline-deficient (MCD) diet-induced liver fibrosis C57BL/6J mouse model assessed as increase in PGC1A mRNA level at 150 to 300 microg/kg once daily for 3 weeks by qPCR analysis; format: functional, organism-based; conditions: dose 150-300 µg/kg
Mus musculus [19] = experiment: In vivo anti-fibrotic activity against CCl4-induced liver fibrosis C57BL/6J mouse model assessed as reduction in hepatocyte apoptosis by measuring decrease in BAX protein level at 300 microg/kg once daily for 3 weeks by TUNEL assay; format: functional, organism-based; conditions: dose 300.0 µg/kg
Mus musculus [20] = experiment: Induction of fatty acid beta-oxidation related gene expression in methionine and choline-deficient (MCD) diet-induced liver fibrosis C57BL/6J mouse model assessed as increase in LCAD mRNA level at 150 to 300 microg/kg once daily for 3 weeks by qPCR analysis; format: functional, organism-based; conditions: dose 150-300 µg/kg
Mus musculus [21] = experiment: In vivo anti-fibrotic activity against methionine and choline-deficient (MCD) diet-induced liver fibrosis C57BL/6J mouse model assessed as reduction in inflammation by measuring decrease in Ly6G inflammation marker at 150 to 300 microg/kg once daily for 3 weeks by IHC staining based assay; format: functional, organism-based; conditions: dose 150-300 µg/kg
Mus musculus [22] = experiment: In vivo anti-fibrotic activity against methionine and choline-deficient (MCD) diet-induced liver fibrosis C57BL/6J mouse model assessed as reduction in hepatocyte apoptosis at 150 to 300 microg/kg once daily for 3 weeks by TUNEL assay; format: functional, organism-based; conditions: dose 150-300 µg/kg
Mus musculus [23] = experiment: In vivo anti-fibrotic activity against CCl4-induced liver fibrosis C57BL/6J mouse model assessed as reduction in ROS treated once daily for 3 weeks by RT-qPCR analysis; format: functional, organism-based; conditions: dose 150-300 µg/kg
Mus musculus [24] = experiment: In vivo anti-fibrotic activity against CCl4-induced liver fibrosis C57BL/6J mouse model assessed as decrease in pro-apoptotic protein BIM level at 300 microg/kg once daily for 3 weeks by Western blot analysis; format: functional, organism-based; conditions: dose 300.0 µg/kg
Mus musculus [25] = experiment: In vivo anti-fibrotic activity against methionine and choline-deficient (MCD) diet-induced liver fibrosis C57BL/6J mouse model assessed as reduction in oxidative stress by measuring increase in superoxide dismutase at 150 to 300 microg/kg once daily for 3 weeks by enzyme activity assay; format: functional, organism-based; conditions: dose 150-300 µg/kg
Mus musculus [26] = experiment: Induction of fatty acid beta-oxidation related gene expression in methionine and choline-deficient (MCD) diet-induced liver fibrosis C57BL/6J mouse model assessed as increase in […] mRNA level at 150 to 300 microg/kg once daily for 3 weeks by qPCR analysis; format: functional, organism-based; conditions: dose 150-300 µg/kg
Mus musculus [27] = experiment: In vivo anti-fibrotic activity against CCl4-induced liver fibrosis C57BL/6J mouse model assessed as liver function by measuring decrease in serum amino-transferase (ALT) at 150 to 300 microg/kg once daily for 3 weeks by bio-chemical analysis; format: functional, organism-based; conditions: dose 150-300 µg/kg

CC[C@H](C)[C@@H]1NC(=O)[C@H]([C@@H](C)O)NC(=O)[C@@H]2CCCN2C(=O)[C@H](CO)NC(=O)[C@H](CC(N)=O)NC(=O)[C@H](CCCCN)NC(=O)[C@H](CCCCN)NC(=O)[C@@H](N)CSSC[C@@H](C(=O)O)NC1=O (H-CKKNSPTIC-OH; disulfide 1-9)
Activity (Mus musculus [1]): Active | Activity (Mus musculus [2]): Active | Activity (Mus musculus [3]): Active | Activity (LX-2): 47% | Activity (Mus musculus [4]): Active | Activity (Mus musculus [5]): Active | Activity (Mus musculus [6]): Active | Activity (Mus musculus [7]): Active | Activity (Mus musculus [8]): Active | Activity (Mus musculus [9]): Active | Activity (Mus musculus [10]): Active | Activity (Mus musculus [11]): Active | Activity (Mus musculus [12]): Active | Activity (Mus musculus [13]): Active | Activity (Mus musculus [14]): Active | Activity (Mus musculus [15]): Active | Activity (Mus musculus [16]): Active | Activity (Mus musculus [17]): Active | Activity (Mus musculus [18]): Active | Activity (Mus musculus [19]): Active | Activity (Mus musculus [20]): Active | Activity (Mus musculus [21]): Active | Activity (Mus musculus [22]): Active | Activity (Mus musculus [23]): Active | Activity (Mus musculus [24]): Active | Activity (Mus musculus [25]): Active | Activity (Mus musculus [26]): Active | Activity (Mus musculus [27]): Active
